In patent US9907791B2, “Ron inhibitors for use in preventing and treating bone loss” (UNIVERSITY OF UTAH RESEARCH FOUNDATION, priority 2014, dated 2018):

What was measured:
PyMT-MSP tumor cells = assay: Intratibial PyMT-MSP tumor-induced osteolysis; format: in vivo, mice
Description: (§1) All procedures involving mice and experimental protocols were approved by the Institutional Animal Care and Use Committee (IACUC) of the University of Utah. The RonTK−/− mice which reside on the FVB background, were crossed with NOD.SCID mice for an immune-compromised mouse model. As a control, wild-type FVB mice were also crossed with NOD.SCID mice. The STK−/− mice, which are on a C57BL/6 background, were compared to wild-type C57BL/6 mice as controls. Mice for all experiments were 6 to 8 weeks of age. For intratibial injections, 1×10^5 (PyMTor DU4475) or 3×10^5 (MDA-MB-231) tumor cells were resuspended in 10 μL matrigel and injected into the right tibia of anesthetized female FVB (PyMT) or NOD.SCID mice carrying various alleles of RON. Osteolysis was assessed by X-ray radiography. Dissected hindlimbs from mice sacrificed at the final time point in each experiment were placed in the Kodak In-vivo Multispectral Imaging System FX and exposed to X-ray radiography at 35 kV for 100 sec. Excess tumor tissue was removed from the bones prior to X-ray. Osteolytic lesions were quantified using Image J software (NCBI). All images were compared to the contralateral leg as an internal control.
Hindlimb bones were excised from mice at the time of sacrifice and bones were fixed in 10% neutral-buffered formalin, decalcified in Formical-2000 (Decal Corporation, Tallman, N.Y.) for 8 days and embedded in paraffin for hematoxylin and eosin (H & E) or immunohistochemical staining. Osteoclast number was assessed as TRAP^+ multinucleated cells containing 4 or more nuclei and reported as TRAP^+ cells per field. Three sections per mouse and 5 fields per section were used for quantification with fields representing the entire length of the tibia. Tumor proliferation rate was reported as the number of cells which were positive for phospho-H3 staining compared to the number of unstained cells per field expressed as a percent. Three sections per mouse and 5 fields per section were used for quantification with analysis being restricted to within the bone marrow cavity. Immunohistochemical analysis was performed with heat-induced antigen retrieval in sodium-citrate buffer (Dako, Denmark). Primary antibodies used were anti-TRAP at 1:50 (Santa Cruz, sc-30833, Dallas, Tex.), anti-Ki67 at 1:100 (Santa Cruz, sc-12202S, Dallas, Tex.), anti-phosphoH3 at 1:100 (Cell Signaling, #9701, Beverly, Mass.), anti-NFATc1 at 1:50 (Santa Cruz, sc-13033, Dallas, Tex.), and anti-RON at 1:250 (Santa Cruz, sc-322, Dallas, Tex.). Bones from mice lacking RON were used as a negative control. Biotinylated secondary antibody was used with the EnVision^+ system HRP kit (Dako, Denmark) and nuclei counterstained with hematoxylin.
For in vivo experiments, the OSI-296 inhibitor was dissolved in 40% Trappsol with 0.01 M HCl, and mice were treated at a concentration of 200 mg/kg daily by oral gavage. Treatment began either 3 days after tumor cell injection for prophylactic experiments, or 3 weeks after tumor cell injection for therapeutic experiments. ASLAN002 was dissolved in 70% PEG400 with 1×PBS and mice were treated at a concentration of 50 mg/kg daily by oral gavage. muRANK-Fc was given at a concentration of 10 mg/kg every three days by intra-peritoneal injection. For the osteoporosis study, mice were treated beginning on the day after ovary removal. The treatment regimen for OSI-296 was 200 mg/kg every other day by oral gavage. ASLAN002 was administered at 50 mg/kg every other day by oral gavage. Treatment continued until the time of sacrifice at 28 days.

PyMT control tumor cells = assay: Intratibial PyMT control tumor-induced osteolysis; format: in vivo, mice; conditions: WT mice, treatment began 3 days post injection, sacrificed 42 days post injection
Description: as §1
(§2) For in vivo experiments, the OSI-296 inhibitor was dissolved in 40% Trappsol with 0.01 M HCl, and mice were treated at a concentration of 200 mg/kg daily by oral gavage. […]

[1] = test system: MSP-overexpressing MDA-MB-231 cells; assay: Intratibial MSP-overexpressing MDA-MB-231 tumor-induced osteolysis; format: in vivo, NOD.SCID mice; conditions: treated 3 days post tumor cell injection, sacrificed 30 days
Description: as §1, §2

bone marrow osteoclasts [2] = assay: Osteoclast resorption assay; format: cell-based, mice; conditions: WT osteoclasts, inhibitors 10 μM or muRANK-Fc 10 μg/mL daily day 9 to 12
Procedure: Bone marrow osteoclasts were generated from 6 to 8 week old WT and RonTK−/− mice. Briefly, bone marrow was isolated from hindlimb bones and plated in α-MEM media containing 10% heat-inactivated fetal bovine serum (FBS, Sigma, St. Louis, Mo.), 100 units/mL penicillin-streptomycin (Hyclone), and 33 ng/mL human macrophage colony-stimulating factor (hM-CSF) (PeproTech, Rocky Hill, N.J.) for 24 hours. Non-adherent cells were collected and frozen for later use. To assess resorption activity, bone marrow precursor cells were thawed and seeded at a density of 1×10^5 cells per well in BioCoat Osteologic slides (BD Biosciences, San Jose, Calif.) in α-MEM media containing 10% FBS and antibiotics. After adhering overnight, media was removed and media containing 33 ng/mL hM-CSF and 9 ng/mL muRANKL (R & D systems, Minneapolis, Minn.) was added. The medium was changed every 3 days depending on acidification, and the assay was terminated as indicated. Recombinant human MSP was prepared and added daily as indicated. Cells were removed with 6% bleach and slides were viewed microscopically using phase-contrast with 20× magnification. Osteolytic resorption area within 5 representative fields was determined using Image J software, experiments were performed in triplicate. […]

RON = RON (Homo sapiens, UniProt Q04912); conditions: from the cited IC50 values; cited from earlier work
Sequence of RON (Q04912 25-1400): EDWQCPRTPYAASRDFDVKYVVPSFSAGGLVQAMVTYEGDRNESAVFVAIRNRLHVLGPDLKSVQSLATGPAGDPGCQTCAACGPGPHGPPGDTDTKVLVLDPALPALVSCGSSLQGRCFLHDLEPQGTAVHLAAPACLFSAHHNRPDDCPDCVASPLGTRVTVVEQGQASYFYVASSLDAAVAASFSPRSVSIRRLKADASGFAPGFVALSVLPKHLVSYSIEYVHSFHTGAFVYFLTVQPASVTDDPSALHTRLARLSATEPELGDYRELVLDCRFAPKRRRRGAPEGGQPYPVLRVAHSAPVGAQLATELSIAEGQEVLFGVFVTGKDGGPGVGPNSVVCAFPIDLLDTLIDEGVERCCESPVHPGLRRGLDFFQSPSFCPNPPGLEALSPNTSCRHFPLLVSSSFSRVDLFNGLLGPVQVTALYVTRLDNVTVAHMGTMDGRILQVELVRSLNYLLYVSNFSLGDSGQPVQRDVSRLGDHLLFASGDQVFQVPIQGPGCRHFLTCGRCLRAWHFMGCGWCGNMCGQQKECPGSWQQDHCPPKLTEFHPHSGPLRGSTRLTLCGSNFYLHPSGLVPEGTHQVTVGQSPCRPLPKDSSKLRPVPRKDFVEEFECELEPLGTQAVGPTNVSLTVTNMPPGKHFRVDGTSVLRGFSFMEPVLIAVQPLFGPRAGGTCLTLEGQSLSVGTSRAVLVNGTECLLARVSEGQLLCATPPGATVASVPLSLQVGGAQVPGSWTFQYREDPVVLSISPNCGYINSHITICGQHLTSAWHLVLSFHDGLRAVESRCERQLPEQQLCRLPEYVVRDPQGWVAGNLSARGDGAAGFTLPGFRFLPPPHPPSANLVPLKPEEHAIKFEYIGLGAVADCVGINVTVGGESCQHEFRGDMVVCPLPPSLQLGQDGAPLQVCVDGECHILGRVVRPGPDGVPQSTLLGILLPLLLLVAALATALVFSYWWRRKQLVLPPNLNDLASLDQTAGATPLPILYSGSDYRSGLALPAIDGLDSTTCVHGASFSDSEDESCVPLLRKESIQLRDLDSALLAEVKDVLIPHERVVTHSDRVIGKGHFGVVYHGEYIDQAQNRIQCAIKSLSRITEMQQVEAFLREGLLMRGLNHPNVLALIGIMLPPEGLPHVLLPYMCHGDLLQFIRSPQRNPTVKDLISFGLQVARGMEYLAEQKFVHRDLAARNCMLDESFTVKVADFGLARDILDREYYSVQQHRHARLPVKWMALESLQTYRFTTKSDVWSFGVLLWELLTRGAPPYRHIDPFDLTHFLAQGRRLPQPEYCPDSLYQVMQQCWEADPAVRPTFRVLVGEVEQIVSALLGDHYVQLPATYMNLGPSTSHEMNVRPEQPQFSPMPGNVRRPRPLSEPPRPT

bone marrow osteoclasts [3] = assay: Osteoclast survival assay; format: cell-based, mice; conditions: 10 μM Src inhibitor daily from day 7 for 48 hours, with MSP
Procedure: Bone marrow precursor cells were thawed and seeded at a density of 2×10^5 cells per well in a 24-well plate containing glass coverslips in α-MEM media containing 10% FBS and antibiotics. After adhering overnight, media was removed and media containing 33 ng/mL hM-CSF and 9 ng/mL muRANKL was added. Cells were allowed to differentiate for 7 days with media changed every 3 days. Coverslips were then imaged microscopically using phase contrast to determine osteoclast number in each well. To test survival, factor-containing media was removed and α-MEM media containing 10% FBS was added as well as MSP as indicated. Cells were cultured for an additional 48 hours, fixed with 10% NBF for 10 minutes and washed with 1×PBS. For TRAP fluorescent staining, the leukocyte acid phosphatase kit (Sigma, St. Louis, Mo.) was used according to the manufacturer's instructions, with the substitution of 200 μM ELF97 (Invitrogen, Waltham, Mass.) as a phosphatase substrate. Coverslips were incubated in TRAP solution for 15 minutes at 37 degrees, washed with 1×PBS and counterstained with DAPI. The number of multinucleated TRAP+ cells (containing 4 or more nuclei) within 5 representative fields were included for quantification. Experiments were performed in triplicate.

| Compound | inhibition of osteolysis (PyMT-MSP tumor cells; PyMT-MSP tumors, treatment beginning three days after tumor injection, average) | TRAP+ osteoclasts in tumor-bearing bones (PyMT-MSP tumor cells; TRAP staining of bone sections) | PyMT-MSP tumor growth in the bone (PyMT-MSP tumor cells; caliper measurements) | PyMT-MSP tumor proliferation rate in the bone (PyMT-MSP tumor cells; percent cells positive for phospho-H3) | progression of existing tumor-induced bone loss (PyMT-MSP tumor cells; post osteolysis treatment, about three weeks after tumor injection) | osteolysis from PyMT control tumors (no MSP) (PyMT control tumor cells) | osteolysis from MSP-expressing MDA-MB-231 tumor cells [1] | MSP-induced increase in osteoclast resorption (resorption area) (bone marrow osteoclasts [2]) | selectivity between RON and Met (RON) | MSP-mediated osteoclast survival (bone marrow osteoclasts [3]) |
| --- | --- | --- | --- | --- | --- | --- | --- | --- | --- | --- |
| C[C@@H](Oc1c(N)ncc2c(C3=CCN(C(N)=O)CC3)coc12)c1c(Cl)ccc(F)c1Cl [OSI-296] | 4-6 fold | no significant effect | reduced | reduced | prevent further tumor-induced bone loss | did not have an effect | reduce MSP-mediated osteolysis to levels seen in control tumor cells | dramatically reduced | more selective for Met | – |
| CN1CCN(CCOc2cc(OC3CCOCC3)c3c(Nc4c(Cl)ccc5c4OCO5)ncnc3c2)CC1 [AZD0530] | – | – | – | – | – | – | – | – | – | blocked MSP-mediated survival |
